Results as given in article PMC8032764 (Scientific Reports, 2021).
Read-outs that look alike come from different tables or passages of the source.

How the values were obtained:
Serotonin 5-HT2C = tested on: T1, Serotonin 5-HT2C; assay: Cerep binding; design: species or system human; conditions: 10 μM; [3H]mesulergine; hum. recomb. (CHO)
T1 construct: purchased Eurofins Cerep

Bombesin (non-selective) = assay: Cerep binding; conditions: 10 μM; [125I][Tyr4]bombesin; rat cerebral cortex
[1] = Pharmacokinetics, single intravenous dosing; type: in vivo, NHP, Cynomolgus macaque; conditions: cynomolgus monkey, plasma, 1.0 mg/kg i.v.
Na+ channel (site 2) = assay: Cerep binding; conditions: 10 μM; [3H]batrachotoxinin; rat cerebral cortex
Neuropeptide Y1 = tested on: T2, Neuropeptide Y1; assay: Cerep binding; design: species or system human; conditions: 10 μM; [125I]peptide YY; hum., SK-N-MC cells
T2 construct: purchased Eurofins Cerep

Muscarinic M2 = tested on: T3, Muscarinic M2; assay: Cerep binding; design: species or system human; conditions: 10 μM; [3H]AF-DX 384; hum. recomb. (CHO)
T3 construct: host or cells: CHO

Dopamine D2S = tested on: T4, Dopamine D2S; assay: Cerep binding; design: species or system human; conditions: 10 μM; [3H]spiperone; hum. recomb. (HEK-293)
T4 construct: host or cells: HEK-293

Dopamine transporter = tested on: T5, Dopamine transporter; assay: Cerep binding; design: species or system human; conditions: 10 μM; [3H]BTCP; hum. recomb. (CHO)
T5 construct: host or cells: CHO

[2] = Pharmacokinetics, single intravenous dosing; type: in vivo; conditions: Wistar, rat, plasma, 4.3 mg/kg i.v., 2 male
Neurotensin NTS1 (NT1) = tested on: T6, Neurotensin NTS1 (NT1); assay: Cerep binding; design: species or system human; conditions: 10 μM; [125I]Tyr3-neurotensin; hum. recomb. (CHO)
T6 construct: host or cells: CHO

Dopamine D5 = tested on: T7, Dopamine D5; assay: Cerep binding; design: species or system human; conditions: 10 μM; [3H]SCH 23390; hum. recomb. (GH4)
T7 construct: host or cells: GH4

Opioid μ = tested on: T8, Opioid μ; assay: Cerep binding; design: species or system human; conditions: 10 μM; [3H]DAMGO; hum. recomb. (HEK-293)
T8 construct: host or cells: HEK-293

GABAA-α5 receptors = molecular target: T9, GABAA-α5 receptors (Rattus norvegicus, UniProt P18508+P19969); assay: In vivo [3H]-Ro 15-4513 binding with ex vivo autoradiography (receptor occupancy); conditions: hippocampus, Hill fit
T9 construct: from tissue; host or cells: rat brain (hippocampus), in vivo with ex vivo autoradiography
Experimental: Brains and blood were collected from each animal. Brains were divided in two halves along their sagittal axis and frozen in dry ice. […] Half of the brain was used for autoradiography, as described earlier. […] The percentage of receptor occupancy (y) was calculated from: y=1001-Sbasmisanil/Svehicle.
The curve was fitted to the experimental results using the Hill equation (Eq. (1) with Hill coefficient D = 1).

[3] = tested on: Platelet derived growth factor (PDGF); assay: Cerep binding; conditions: 10 μM; [125I]PDGF BB; mouse, Balb/c 3T3 cells
[4] = tested on: T10, Benzodiazepine (peripheral); assay: Cerep binding; conditions: 10 μM; [3H]PK 11195; rat heart
T10 construct: tissue Eurofins Cerep SA; host or cells: rat heart

Cholecystokinin CCK2 = tested on: T11, Cholecystokinin CCK2; assay: Cerep binding; design: species or system human; conditions: 10 μM; [125I]CCK-8s; hum. recomb. (CHO)
T11 construct: purchased Eurofins Cerep

Endothelin ETB = tested on: T12, Endothelin ETB; assay: Cerep binding; design: species or system human; conditions: 10 μM; [125I]endothelin-1; hum. recomb. (CHO)
T12 construct: purchased Eurofins Cerep

[5] = tested on: T13, Norepinephrine transporter; assay: Cerep binding; design: species or system human; conditions: 10 μM; [3H]nisoxetine; hum. recomb. (CHO)
T13 construct: host or cells: CHO

T9 sequence (P19969 32-464 limits assumed): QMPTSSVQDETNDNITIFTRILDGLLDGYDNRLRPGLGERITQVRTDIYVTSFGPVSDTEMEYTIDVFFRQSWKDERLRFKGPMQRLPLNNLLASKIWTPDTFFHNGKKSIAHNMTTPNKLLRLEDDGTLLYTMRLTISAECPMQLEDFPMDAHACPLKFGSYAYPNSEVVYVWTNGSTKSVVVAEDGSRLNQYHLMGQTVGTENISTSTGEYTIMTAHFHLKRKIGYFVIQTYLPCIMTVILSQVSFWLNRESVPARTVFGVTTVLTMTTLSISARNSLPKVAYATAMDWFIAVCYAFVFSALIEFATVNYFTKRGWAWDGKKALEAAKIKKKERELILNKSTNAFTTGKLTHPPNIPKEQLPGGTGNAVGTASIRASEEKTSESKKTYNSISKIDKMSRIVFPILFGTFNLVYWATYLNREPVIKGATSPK
T9 sequence (P18508 39-466): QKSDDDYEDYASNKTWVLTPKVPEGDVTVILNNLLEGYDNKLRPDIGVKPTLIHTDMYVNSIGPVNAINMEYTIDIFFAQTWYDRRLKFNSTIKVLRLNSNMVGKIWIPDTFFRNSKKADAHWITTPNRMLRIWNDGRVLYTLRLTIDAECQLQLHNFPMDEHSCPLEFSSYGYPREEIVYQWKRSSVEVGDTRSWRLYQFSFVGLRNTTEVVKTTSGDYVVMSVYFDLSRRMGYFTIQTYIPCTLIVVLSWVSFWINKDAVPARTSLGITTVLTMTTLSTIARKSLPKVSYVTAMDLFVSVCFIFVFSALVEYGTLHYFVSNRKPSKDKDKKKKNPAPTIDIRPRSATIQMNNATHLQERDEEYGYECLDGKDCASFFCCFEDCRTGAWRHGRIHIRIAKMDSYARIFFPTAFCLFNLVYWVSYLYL
T9 sequence (P63079 26-473 partner): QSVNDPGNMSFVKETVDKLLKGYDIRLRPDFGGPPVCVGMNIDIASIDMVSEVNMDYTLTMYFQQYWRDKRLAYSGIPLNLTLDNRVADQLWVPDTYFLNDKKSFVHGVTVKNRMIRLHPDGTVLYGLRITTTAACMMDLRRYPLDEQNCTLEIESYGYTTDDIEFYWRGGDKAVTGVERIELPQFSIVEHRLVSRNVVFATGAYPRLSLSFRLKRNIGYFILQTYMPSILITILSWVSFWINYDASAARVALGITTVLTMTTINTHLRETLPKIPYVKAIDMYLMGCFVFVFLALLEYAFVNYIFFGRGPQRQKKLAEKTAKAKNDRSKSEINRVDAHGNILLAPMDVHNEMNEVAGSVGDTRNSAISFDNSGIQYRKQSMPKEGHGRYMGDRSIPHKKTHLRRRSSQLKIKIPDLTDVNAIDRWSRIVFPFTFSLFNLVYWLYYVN

SMILES: Cc1onc(-c2ccc(F)cc2)c1COc1ccc(C(=O)N2CCS(=O)(=O)CC2)cn1 [basmisanil]
- % Inhibition (Serotonin 5-HT2C): 10%
- % Inhibition (Bombesin (non-selective)): -24%
- half-life ([1]; n=3): 4.5 ± 1.8 h
- clearance ([1]; n=3, read-out: Total CL): 3 ± 0.7 mL/min/kg
- Vd ([1]; n=3, read-out: Vss): 0.9 ± 0.6 L/kg
- % Inhibition (Na+ channel (site 2)): 0%
- % Inhibition (Neuropeptide Y1): 0%
- % Inhibition (Muscarinic M2): 13%
- % Inhibition (Dopamine D2S): 9%
- % Inhibition (Dopamine transporter): 19%
- half-life [2]: 1.2 h
- clearance ([2]; read-out: Total CL): 54 mL/min/kg
- Vd ([2]; read-out: Vss): 2.9 L/kg
- % Inhibition (Neurotensin NTS1 (NT1)): -6%
- % Inhibition (Dopamine D5): -11%
- % Inhibition (Opioid μ): 3%
- EC50 (GABAA-α5 receptors; free plasma, read-out: free plasma concentration for half-maximal receptor occupancy (EC50)): 171 ± 16 nM
- EC50 (GABAA-α5 receptors; total plasma, read-out: plasma level for half-maximal receptor occupancy (EC50) (converted)): 1220 nM
- % Inhibition [3]: -17%
- % Inhibition [4]: -10%
- % Inhibition (Cholecystokinin CCK2): -21%
- % Inhibition (Endothelin ETB): -2%
- % Inhibition [5]: 11%
